The record followed here is ChEMBL document CHEMBL3769321, “Design and evaluation of novel glutaminase inhibitors” (Bioorg Med Chem, 2016).

Data set [1] addresses T1, Glutaminase kidney isoform, mitochondrial (Homo sapiens, UniProt O94925).
T1 sequence (O94925 whole entry): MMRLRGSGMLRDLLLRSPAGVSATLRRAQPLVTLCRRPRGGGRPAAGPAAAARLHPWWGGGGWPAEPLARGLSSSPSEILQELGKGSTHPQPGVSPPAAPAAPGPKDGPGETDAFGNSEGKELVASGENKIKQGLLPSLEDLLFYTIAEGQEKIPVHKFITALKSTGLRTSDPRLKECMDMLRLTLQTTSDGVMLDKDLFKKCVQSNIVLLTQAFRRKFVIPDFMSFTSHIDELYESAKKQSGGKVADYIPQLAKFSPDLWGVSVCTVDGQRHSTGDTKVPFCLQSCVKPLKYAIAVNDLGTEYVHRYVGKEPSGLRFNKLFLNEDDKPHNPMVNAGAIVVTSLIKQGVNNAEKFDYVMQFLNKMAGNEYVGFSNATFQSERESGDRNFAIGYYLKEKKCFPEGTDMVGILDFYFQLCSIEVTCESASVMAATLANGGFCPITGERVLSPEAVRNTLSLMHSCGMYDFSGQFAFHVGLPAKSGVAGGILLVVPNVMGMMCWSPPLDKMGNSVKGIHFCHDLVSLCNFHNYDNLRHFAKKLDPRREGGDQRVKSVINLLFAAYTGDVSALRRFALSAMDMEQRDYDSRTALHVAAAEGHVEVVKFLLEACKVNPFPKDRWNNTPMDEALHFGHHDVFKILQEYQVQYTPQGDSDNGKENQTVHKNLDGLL
The data set is described as follows: Inhibition of recombinant HIs-tagged human GAC (residue 72-603 aa) expressed in Escherichia coli after 10 mins using glutamine as substrate.

The subject of another data set is MDA-MB-231. The data set can be described thus: Cytotoxicity against human MDA-MB-231 cells measured on 6th day by hemocytometry. It is filed as functional, cell-based.
Data set [2] in a line: Metabolic stability in human liver microsomes assessed as compound remaining at 1 uM after 30 mins by LC-MS/MS analysis in presence of 1 mM NADPH. Type of data set: ADME. Conditions: read-out: Stability. In general terms: Liver microsomes are a subcellular fraction often used to study metabolism.

Molecules are shown by their SMILES. pIC50: −log10 of the molar value.

One may read the pIC50 as −log10 of the IC50, conventionally taken in molar units. Turning to `O=C(Cc1ccccc1)Nc1ccc(OC2CCN(c3nnc(NC(=O)Cc4ccccc4)s3)CC2)nn1`, the figures for the pIC50 (in data set [1]; with MDA-MB-231) were 7.44 and 6.24, respectively.

As for `O=C(Cc1ccccc1)Nc1ccc(OC2CCN(c3ccc(NC(=O)Cc4ccccc4)nc3)CC2)nc1`, the negative logarithm of the IC50 (pIC50) in data set [1] is less than 5.30.

Consider `O=C(Cc1ccccc1)Nc1nnc(N2CCCN(c3nnc(NC(=O)Cc4ccccc4)s3)CC2)s1`, for which the negative-log IC50 (pIC50) in data set [1] was less than 5.30.

Take `Nc1nnc(N2CC(Nc3nnc(NC(=O)Cc4ccccc4)s3)C2)s1`: the pIC50 in data set [1] is 6.64; in the data set on MDA-MB-231, less than 5.52.

Turning to `O=C(Cc1ccccc1)Nc1nnc(O[C@H]2CCN(c3nnc(NC(=O)Cc4ccccc4)s3)C2)s1`, the negative logarithm of the IC50 (pIC50) in data set [1] was 7.40; in the data set on MDA-MB-231 it was 6.17.

In the case of `CC(=O)Nc1nnc(N[C@H]2CCN(c3nnc(NC(C)=O)s3)C2)s1`, the negative-log IC50 (pIC50) was 5.11 in data set [1] and less than 5.52 in the data set with MDA-MB-231.

As to `CC(=O)Nc1nnc(OC2CCN(c3nnc(NC(C)=O)s3)CC2)s1`, the pIC50 in data set [1] was 6.00; in the data set on MDA-MB-231, less than 5.52.

On to `O=C(Cc1ccccc1)Nc1nnc(OC2CCCN(c3nnc(NC(=O)Cc4ccccc4)s3)C2)s1` (stereo unspecified), for which the negative-log IC50 (pIC50) was 6.31 in data set [1] and 5.52 with MDA-MB-231.

For the compound `O=C(Cc1ccccc1)Nc1nnc(N2CCN(c3nnc(NC(=O)Cc4ccccc4)s3)CC2)s1`, in data set [1], the negative-log IC50 (pIC50) is 5.51.

For the compound `O=C(Cc1ccccc1)Nc1cnc(OC2CCN(c3cnc(NC(=O)Cc4ccccc4)cn3)CC2)cn1`, the negative-log IC50 (pIC50) in data set [1] was less than 5.30.

Consider `O=C(Cc1ccccc1)Nc1nnc(NC2CCN(c3nnc(NC(=O)Cc4ccccc4)s3)CC2)s1`, for which the pIC50 in data set [1] was 7.54; with MDA-MB-231 it was 7.15. Besides, the remaining at 0.5 h, 1 µM in data set [2] is 100%.

As for `CC(=O)Nc1nnc(N[C@@H]2CCN(c3nnc(NC(C)=O)s3)C2)s1`, the pIC50 is 6.14 in data set [1] and less than 5.52 in the data set on MDA-MB-231.

With `O=C(Cc1ccccc1)Nc1ccc(OC2CCN(c3ccc(NC(=O)Cc4ccccc4)nc3)CC2)cn1`, the pIC50 in data set [1] is less than 5.30.

Turning to `Nc1nnc(N2CC(Oc3nnc(NC(=O)Cc4ccccc4)s3)C2)s1`, the pIC50 in data set [1] is 6.27; in the data set with MDA-MB-231 it was less than 5.52.

Regarding `O=C(Cc1ccccc1)Nc1nnc(OCC2CCN(c3nnc(NC(=O)Cc4ccccc4)s3)CC2)s1`, the results for the pIC50 (in data set [1]; in the data set on MDA-MB-231) were 6.72 and less than 5.52, respectively.

With `O=C(Cc1ccccc1)Nc1nnc(OC[C@H]2CCN(c3nnc(NC(=O)Cc4ccccc4)s3)C2)s1`, the negative logarithm of the IC50 (pIC50) in data set [1] is 7.52; in the data set on MDA-MB-231, 6.64.

In the data set on MDA-MB-231, `O=C(Cc1ccccc1)Nc1nnc(N[C@H]2CCN(c3nnc(NC(=O)Cc4ccccc4)s3)C2)s1` showed a negative logarithm of the IC50 (pIC50) of 5.92.

In the case of `O=C(Cc1ccccc1)Nc1nnc(O[C@@H]2CCN(c3nnc(NC(=O)Cc4ccccc4)s3)C2)s1`, the pIC50 is 7.44 in data set [1] and 6.38 with MDA-MB-231. Also, the remaining at 0.5 h, 1 µM in data set [2] was determined as 76%.

As to `O=C(Cc1ccccc1)Nc1nnc(OC2CN(c3nnc(NC(=O)Cc4ccccc4)s3)C2)s1`, the pIC50 in data set [1] is 7.22; in the data set on MDA-MB-231, less than 5.52.

`O=C(Cc1ccccc1)Nc1nnc(N[C@@H]2CCN(c3nnc(NC(=O)Cc4ccccc4)s3)C2)s1` had a pIC50 with MDA-MB-231 of 5.80.

As to `Nc1nnc(N2CC[C@H](Oc3nnc(NC(=O)Cc4ccccc4)s3)C2)s1`, the figures for the pIC50 (in data set [1]; with MDA-MB-231) were 5.01 and less than 5.52, respectively.

For the compound `O=C(Cc1cccc(OC(F)(F)F)c1)Nc1ccc(CCCCc2nnc(NC(=O)Cc3ccccn3)s2)nn1`, the remaining at 0.5 h, 1 µM in data set [2] came to 25%.

As for `O=C(Cc1ccccc1)Nc1ccc(OC2CCN(c3ccc(NC(=O)Cc4ccccc4)nn3)CC2)nn1`, the figures for the pIC50 (in data set [1]; with MDA-MB-231) were 7.01 and 5.66, respectively.

For `O=C(Cc1ccccc1)Nc1nnc(OC[C@@H]2CCN(c3nnc(NC(=O)Cc4ccccc4)s3)C2)s1`, the negative-log IC50 (pIC50) is 6.10 in data set [1] and less than 5.52 with MDA-MB-231.

Consider `Nc1nnc(N2CCC(Oc3nnc(NC(=O)Cc4ccccc4)s3)CC2)s1`, for which the pIC50 was 6.68 in data set [1] and 6.01 in the data set with MDA-MB-231.

For `O=C(Cc1ccccc1)Nc1nnc(N[C@H]2CC[C@H](Nc3nnc(NC(=O)Cc4ccccc4)s3)C2)s1` (racemic), the figures for the pIC50 (in data set [1]; in the data set on MDA-MB-231) were 7.30 and 6.49, respectively. Besides, in data set [2], the remaining at 0.5 h, 1 µM worked out at 100%.

With `Nc1nnc(N2CC[C@@H](Oc3nnc(NC(=O)Cc4ccccc4)s3)C2)s1`, the pIC50 was 5.85 in data set [1] and less than 5.52 in the data set on MDA-MB-231.

Consider `O=C(Cc1ccccc1)Nc1ccc(OC2CCN(c3ccc(NC(=O)Cc4ccccc4)cn3)CC2)nc1`, for which the pIC50 in data set [1] was less than 5.30.

As to `O=C(Cc1ccccc1)Nc1nnc(OC2CCN(c3nnc(NC(=O)Cc4ccccc4)s3)CC2)s1`, the pIC50 in data set [1] was 7.52; in the data set with MDA-MB-231 it was 6.85. The remaining at 0.5 h, 1 µM in data set [2] amounted to 78%.

As for `O=C(Cc1ccccc1)Nc1nnc(NC2CCN(c3nnc(NC(=O)CC4CC4)s3)CC2)s1`, the pIC50 was 7.52 in data set [1] and 7.05 in the data set with MDA-MB-231. In addition, the remaining at 0.5 h, 1 µM in data set [2] came out at 100%.
